Results from US20160122307A1, “PERHYDROQUINOXALINE DERIVATIVES” (DR. AUGUST WOLFF GMBH & CO. KG ARZNEIMITTEL, priority 2013, published 2016).
Like-named read-outs stand apart in the source and are kept apart here.

Columns and labels:
Human opiate κ receptors [1] = biological target: T1, Human opiate κ receptors (Homo sapiens, UniProt P41145); format: binding; parameters: expressed in transfected cells; host or cells: HEK-293 cell membranes
Human opiate κ receptors [2] = biological target: T1, Human opiate κ receptors; test: κ opioid receptor functional assay, [35S]GTPγS binding (assay C); format: biochemical; settings: for activation at 1 µM: 0.5 h, read-out: % activation functional assay at 1 μM
[3] = read-out: EC50 (nM) [35S]GTPγS binding

T1 sequence (P41145 whole entry): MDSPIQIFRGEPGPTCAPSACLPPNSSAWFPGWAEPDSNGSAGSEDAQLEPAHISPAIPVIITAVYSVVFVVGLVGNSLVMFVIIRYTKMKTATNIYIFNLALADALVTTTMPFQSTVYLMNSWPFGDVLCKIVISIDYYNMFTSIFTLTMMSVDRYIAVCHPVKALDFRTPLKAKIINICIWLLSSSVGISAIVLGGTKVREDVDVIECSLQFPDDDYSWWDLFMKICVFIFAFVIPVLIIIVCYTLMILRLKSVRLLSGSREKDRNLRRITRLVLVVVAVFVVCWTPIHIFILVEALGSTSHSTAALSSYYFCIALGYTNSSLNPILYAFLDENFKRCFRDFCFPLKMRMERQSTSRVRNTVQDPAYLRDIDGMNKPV

SMILES | activation at 1 µM (Human opiate κ receptors [2]) [%] | EC50 (Human opiate κ receptors [2]; GTPγS EC50 (nM)) [nM] | also measured
COC(=O)N1CCN(C(=O)Cc2cc(F)cc(F)c2)[C@@H]2[C@@H](N3CCCC3)CCC[C@@H]21.Cl (racemic) [Example 2] |  |  | % binding at 100 nM (Human opiate κ receptors [1]): 41%
COC(=O)N1CCN(C(=O)Cc2ccc([N+](=O)[O-])cc2)[C@@H]2[C@@H](N3CCCC3)CCC[C@@H]21.Cl (racemic) [Example 4] |  |  | % binding at 100 nM (Human opiate κ receptors [1]): 43%
COC(=O)N1CCN(C(=O)Cc2c[nH]c3ccccc23)[C@@H]2[C@@H](N3CCCC3)CCC[C@@H]21.Cl (racemic) [Example 9] |  |  | % binding at 100 nM (Human opiate κ receptors [1]): 43%
CCC(=O)N1CCN(C(=O)Cc2ccc(Cl)c(Cl)c2)C2C(N3CCCC3)CCCC21 (racemic) [Example 25] | 102 | < 10 | activation (% of control) at 1 μM (Human opiate κ receptors [2]): 102 % of control; EC50 (Human opiate κ receptors [2]; EC50 (nM) [35S]GTPγS binding): 2.55 nM
COC(=O)N1CCN(C(=O)Cc2ccc(Cl)c(Cl)c2)C2C(N3CC(O)C3)CCCC21 (racemic) [Example 71] |  |  | % activation functional assay at 1 μM (Human opiate κ receptors [2]): 113%; EC50 (Human opiate κ receptors [2]; read-out: GTPγS EC50): 10 to 100 nM
CC(C)NC(=O)N1CCN(C(=O)Cc2ccc(Cl)c(Cl)c2)C2C(N3CCCC3)CCCC21 (racemic) [Example 42] | 96 | < 10 | 
O=C(CO)N1CCN(C(=O)Cc2ccc(Cl)c(Cl)c2)C2C(N3CCCC3)CCCC21 (racemic) [Example 59] | 109 | 10 to 100 | 
COc1ccc(CN2CCN(C(=O)Cc3ccc(Cl)c(Cl)c3)C3C(N4CCCC4)CCCC32)cc1 (stereo not drawn) [X, reference compound] |  |  | activation (% of control) at 1 μM (Human opiate κ receptors [2]): 91 % of control; EC50 (Human opiate κ receptors [2]; [3]): 26 nM
NC(=O)c1ccc(C(=O)N2CCN(C(=O)Cc3ccc(Cl)c(Cl)c3)C3C(N4CCCC4)CCCC32)cc1 (racemic) [Example 87] | 109 |  | 
CCN(C)C1CCCC2C1N(C(=O)Cc1ccc(Cl)c(Cl)c1)CCN2C(=O)OC (racemic) [Example 45] | 91 | < 10 | 
O=C(N1CCCC1)N1CCN(C(=O)Cc2ccc(Cl)c(Cl)c2)C2C(N3CCCC3)CCCC21 (racemic) [Example 38] | 109 | 10 to 100 | 
CCCCN1CCN(C(=O)Cc2ccc(Cl)c(Cl)c2)C2C(N3CCCC3)CCCC21 (stereo not drawn) [W, reference compound] |  |  | activation (% of control) at 1 μM (Human opiate κ receptors [2]): 113 % of control; EC50 (Human opiate κ receptors [2]; [3]): 12 nM
COC(=O)N1CCN(C(=O)Cc2ccc(C(F)(F)F)c(F)c2)[C@@H]2[C@@H](N3CC[C@H](O)C3)CCC[C@@H]21 [Example 141] | 99 | < 10 | 
O=C(Cc1ccc(Cl)c(Cl)c1)N1CCN(Cc2ccccc2)[C@@H]2CCC[C@H](N3CCCC3)[C@H]21 (racemic) [H, reference compound] |  |  | activation (% of control) at 1 μM (Human opiate κ receptors [2]): 97 % of control; EC50 (Human opiate κ receptors [2]; EC50 (nM) [35S]GTPγS binding): 29 nM
CN(C)S(=O)(=O)N1CCN(C(=O)Cc2ccc(Cl)c(Cl)c2)C2C(N3CCCC3)CCCC21 (racemic) [Example 35] | 108 | < 10 | 
COC(=O)N1CCN(C(=O)Cc2ccc(Cl)c(Cl)c2)[C@@H]2[C@@H](N3CC[C@@H](O)C3)CCC[C@@H]21 [Example 96] | 109 | < 10 | 
O=C(C1CCCC1)N1CCN(C(=O)Cc2ccc(Cl)c(Cl)c2)C2C(N3CCCC3)CCCC21 (racemic) [Example 51] | 97 | < 10 | 
COC(=O)N1CCN(C(=O)Cc2ccc(F)c(Cl)c2)[C@@H]2[C@@H](N3CCCC3)CCC[C@@H]21 [Example 92] | 105 | 10 to 100 | 
Cl.Cl.Cl.O=C(Cc1ccc(Cl)c(Cl)c1)N1CCN(c2cccnc2)C2CCCC(N3CCCC3)C21 (racemic) [Example 72] |  |  | % activation functional assay at 1 μM (Human opiate κ receptors [2]): 106%; EC50 (Human opiate κ receptors [2]; read-out: GTPγS EC50): < 10 nM
COC(=O)N1CCN(C(=O)Cc2cccc(Cl)c2)C2C(N3CCCC3)CCCC21 (racemic) [Example 46] | 96 | < 10 | 
O=C(O)CCC(=O)N1CCN(C(=O)Cc2ccc(Cl)c(Cl)c2)[C@H]2[C@H]1CCC[C@@H]2N1CCCC1 (racemic) [AE, reference compound] |  |  | activation (% of control) at 1 μM (Human opiate κ receptors [2]): 43 % of control; activation of the kappa opioid receptors at 1 μM (Human opiate κ receptors [2]): no or little activation; EC50 (Human opiate κ receptors [2]; EC50 (nM) [35S]GTPγS binding): > 1000 nM
COC(=O)N1CCN(C(=O)Cc2ccc(C(F)(F)F)c(Cl)c2)[C@@H]2[C@@H](N3CC[C@H](O)C3)CCC[C@@H]21 [Example 108] | 100 | < 10 | 
O=C(Nc1ccccc1)N1CCN(C(=O)Cc2ccc(Cl)c(Cl)c2)C2C(N3CCCC3)CCCC21 (racemic) [Example 43] | 107 | < 10 | 

SMILES | activation at 1 µM (Human opiate κ receptors [2]) [%] | EC50 (Human opiate κ receptors [2]; GTPγS EC50 (nM)) [nM] | also measured
COC(=O)C(=O)N1CCN(C(=O)Cc2ccc(Cl)c(Cl)c2)C2C(N3CCCC3)CCCC21.Cl (stereo not drawn) [Example 103] |  |  | % activation functional assay at 1 μM (Human opiate κ receptors [2]): 98%; EC50 (Human opiate κ receptors [2]; read-out: GTPγS EC50): < 10 nM
O=C(c1ccccc1)N1CCN(C(=O)Cc2ccc(Cl)c(Cl)c2)C2C(N3CCCC3)CCCC21 (racemic) [Example 31] | 93 |  | activation (% of control) at 1 μM (Human opiate κ receptors [2]): 93 % of control
CN(C)C(=O)C(=O)N1CCN(C(=O)Cc2ccc(Cl)c(Cl)c2)[C@@H]2[C@@H](N3CCCC3)CCC[C@@H]21.Cl [Example 116] |  |  | % activation functional assay at 1 μM (Human opiate κ receptors [2]): 111%; EC50 (Human opiate κ receptors [2]; read-out: GTPγS EC50): 10 to 100 nM
CS(=O)(=O)N1CCN(C(=O)Cc2ccc(Cl)c(Cl)c2)C2C(N3CCC(O)C3)CCCC21.Cl (stereo not drawn) [Example 121] |  |  | % activation functional assay at 1 μM (Human opiate κ receptors [2]): 106%; EC50 (Human opiate κ receptors [2]; read-out: GTPγS EC50): < 10 nM
COC(=O)N1CCN(C(=O)Cc2ccc(F)c(F)c2)C2C(N3CCCC3)CCCC21 (racemic) [Example 18] | 112 | < 10 | 
COC(=O)N1CCN(C(=O)Cc2cc(Cl)c3c(c2)OCCO3)C2C(N3CCCC3)CCCC21 (racemic) [Example 7] | 101 | 10 to 100 | 
O=C(Cc1ccc(Cl)c(Cl)c1)N1CCN(Cc2cnc[nH]2)C2CCCC(N3CCCC3)C21 (racemic) [Example 49] | 112 | < 10 | activation (% of control) at 1 μM (Human opiate κ receptors [2]): 112 % of control; EC50 (Human opiate κ receptors [2]; EC50 (nM) [35S]GTPγS binding): 6.65 nM
COC(=O)CC(=O)N1CCN(C(=O)Cc2ccc(Cl)c(Cl)c2)C2C(N3CCC(O)C3)CCCC21 (stereo not drawn) [U, reference compound] |  |  | activation (% of control) at 1 μM (Human opiate κ receptors [2]): 86 % of control; EC50 (Human opiate κ receptors [2]; [3]): 170 nM
NC(=O)COC(=O)N1CCN(C(=O)Cc2ccc(Cl)c(Cl)c2)C2C(N3CCCC3)CCCC21 (racemic) [Example 68] | 104 | 10 to 100 | 
CC(C)NC(=O)N1CCN(C(=O)Cc2ccc(Cl)c(Cl)c2)C2C(N3CCC(O)C3)CCCC21.Cl (stereo not drawn) [Example 120] |  |  | % activation functional assay at 1 μM (Human opiate κ receptors [2]): 100%; EC50 (Human opiate κ receptors [2]; read-out: GTPγS EC50): < 10 nM
O=C(C1CCC1)N1CCN(C(=O)Cc2ccc(Cl)c(Cl)c2)C2C(N3CCCC3)CCCC21 (racemic) [Example 27] | 103 | < 10 | 
O=C(C1CCCN1)N1CCN(C(=O)Cc2ccc(Cl)c(Cl)c2)C2C(N3CCCC3)CCCC21 (racemic) [Example 80] | 76 | 100 to 1000 | 
NC(=O)CNC(=O)N1CCN(C(=O)Cc2ccc(Cl)c(Cl)c2)C2C(N3CCCC3)CCCC21 (racemic) [Example 76] | 106 | 10 to 100 | 
COC(=O)N1CCN(C(=O)Cc2ccc(Cl)s2)C2C(N3CCCC3)CCCC21 (racemic) [Example 8] | 97 | 10 to 100 | 
COC(=O)N1CCN(C(=O)Cc2cccc(Cl)c2)[C@@H]2[C@@H](N3CC[C@H](O)C3)CCC[C@@H]21 [Example 143] | 102 | 10 to 100 | 
CNC(=O)N1CCN(C(=O)Cc2ccc(Cl)c(Cl)c2)C2C(N3CCCC3)CCCC21 (racemic) [Example 62] | 104 | 10 to 100 | 
CCNC(=O)N1CCN(C(=O)Cc2ccc(Cl)c(Cl)c2)C2C(N3CCCC3)CCCC21 (racemic) [Example 40] | 96 | < 10 | 
COC(=O)N1CCN(C(=O)Cc2ccc(F)c(OC)c2)C2C(N3CCCC3)CCCC21 (racemic) [Example 21] | 103 | 10 to 100 | 
COC(=O)N1CCN(C(=O)Cc2ccc(F)c(Cl)c2)C2C(N3CCCC3)CCCC21 (racemic) [Example 20] | 96 | < 10 | 
CS(=O)(=O)N1CCN(C(=O)Cc2ccc(Cl)c(Cl)c2)C2C(N3CCCC3)CCCC21 (racemic) [Example 23] | 91 | < 10 | 
COC(=O)C(=O)N1CCN(C(=O)Cc2ccc(Cl)c(Cl)c2)C2C(N3CCCC3)CCCC21 (racemic) [Example 65] | 104 | < 10 | 
COC(=O)COC(=O)N1CCN(C(=O)Cc2ccc(Cl)c(Cl)c2)[C@@H]2[C@@H](N3CC[C@H](O)C3)CCC[C@@H]21 [Example 106] | 92 | < 10 | 
COC(=O)CCC(=O)N1CCN(C(=O)Cc2ccc(Cl)c(Cl)c2)[C@H]2[C@H]1CCC[C@@H]2N1CCCC1 (racemic) [Q, reference compound] |  |  | EC50 (Human opiate κ receptors [2]): 530 nM; activation (% of control) at 1 μM (Human opiate κ receptors [2]): 61 % of control
